In US12528768B2, “Crystalline form of a 7H-benzo[7]annulene-2-carboxylic acid derivative” (Sanofi, priority 2019, dated 2026):

What was measured:
[1] = Physical stability of the solid form (exposure to heat, moisture, nitrogen or ambient conditions, followed by XRPD); format: physicochemical; details: for stability of the solid form (in words): overall judgement; for result of exposure to heat and/or moisture: heat (for example 40° C.) and/or moisture
Protocol: II. X-Ray Powder Diffraction (XRPD) Analyses were carried out at room temperature on a Brucker D4 Endeavor instrument using the Bragg-Brentano parafocusing geometry. A sealed copper anode X-ray tube was used (λ, CuKα average=1.54178 Å). A LynxEye linear detector completed the setup. A counting time of few seconds per step in an angular range of from few 2-Theta degrees to several dozen 2-Theta degrees with a 0.016° step size in 20 was used for each sample analysis. For each experiment, the powder was deposited onto the surface of a sample holder.

[2] = Water sorption isotherms using Dynamic Vapor Sorption (DVS); format: physicochemical; details: for Change in Mass / Change in Mass (water uptake): DVS sorption step, 25° C.; for Change in Mass (water uptake): target RH 95%; for weight gain determined by DVS: about 25° C. (±0.2° C.)
Protocol: III. Water Sorption Isotherms Using Dynamic Vapor Sorption (DVS) Experiments were performed on DVS automated gravimetric vapor sorption analyzer (Surface Measurement Systems Ltd., London, UK). Uptake and loss of water by the sample were gravimetrically measured with an ultra-microbalance with a mass resolution of ±0.1 μg. A controlled relative humidity was generated by mixing different proportions of dry and water saturated carrier gas streams. The temperature was maintained constant at 25.0±0.2° C., by enclosing the entire system in a temperature controlled incubator. A sample size between 5 and 20 mg was used. Prior to being exposed to any water vapor the sample was dried at 0% relative humidity (RH) to remove most surface water present and establish a dry, baseline mass. Next, the sample was exposed to an increasing relative humidity raised by steps of 5% RH, from 0 to 95% RH.

| Structure (SMILES) | stability of the solid form (in words) [1] | Change in Mass ([2]; target RH 0%) [%] | Change in Mass ([2]; target RH 10%) [%] | Change in Mass ([2]; target RH 20%) [%] | Change in Mass ([2]; target RH 30%) [%] | Change in Mass ([2]; target RH 40%) [%] | Change in Mass ([2]; target RH 50%) [%] | Change in Mass ([2]; target RH 60%) [%] | Change in Mass ([2]; target RH 70%) [%] | Change in Mass ([2]; target RH 80%) [%] | Change in Mass ([2]; target RH 90%) [%] | other results |
| --- | --- | --- | --- | --- | --- | --- | --- | --- | --- | --- | --- | --- |
| O=C(O)c1ccc2c(c1)CCCC(c1ccc(Cl)cc1Cl)=C2c1ccc(O[C@H]2CCN(CCCF)C2)cc1 [1,4-dioxane solvate] | physically unstable | – | – | – | – | – | – | – | – | – | – | conversion at room temperature ([1]; room temperature, one week): converts at room temperature to an unknown poorly crystallized solid form |
| O=C(O)c1ccc2c(c1)CCCC(c1ccc(Cl)cc1Cl)=C2c1ccc(O[C@H]2CCN(CCCF)C2)cc1 [2-propanol solvate] | – | – | – | – | – | – | – | – | – | – | – | transformation upon heating ([1]; upon heating): transforms into anhydrate Form 3 which itself generally transforms into anhydrate Form 2 |
| O=C(O)c1ccc2c(c1)CCCC(c1ccc(Cl)cc1Cl)=C2c1ccc(O[C@H]2CCN(CCCF)C2)cc1 [DCM solvate] | unstable | – | – | – | – | – | – | – | – | – | – | result of exposure to heat and/or moisture [1]: formation of the anhydrate Form 1; result of exposure to heat and/or N2 ([1]; heat and/or N2): formation of the anhydrate Form 4 |
| O=C(O)c1ccc2c(c1)CCCC(c1ccc(Cl)cc1Cl)=C2c1ccc(O[C@H]2CCN(CCCF)C2)cc1 [THF solvate] | unstable | – | – | – | – | – | – | – | – | – | – | result of exposure to heat and/or moisture [1]: formation of the anhydrate form 1 |
| O=C(O)c1ccc2c(c1)CCCC(c1ccc(Cl)cc1Cl)=C2c1ccc(O[C@H]2CCN(CCCF)C2)cc1 [acetone solvate] | physically unstable | – | – | – | – | – | – | – | – | – | – | result of exposure to ambient conditions or dry nitrogen [1]: converts to low crystalline materials |
| O=C(O)c1ccc2c(c1)CCCC(c1ccc(Cl)cc1Cl)=C2c1ccc(O[C@H]2CCN(CCCF)C2)cc1 [anhydrate crystalline Form 1, 6-(2,4-dichlorophenyl)-5-[4-[(3S)-1-(3-fluoropropyl)pyrrolidin-3-yl]oxyphenyl]-8,9-dihydro-7H-benzo[7]annulene-2-carboxylic acid] | metastable | 0.00 | 0.20 | 0.54 | 0.99 | 1.54 | 2.09 | 2.57 | 2.99 | 3.36 | 3.76 | Change in Mass (water uptake) [2]: 4.07%; weight gain determined by DVS ([2]; at 95% relative humidity): 4.07 weight % |
| O=C(O)c1ccc2c(c1)CCCC(c1ccc(Cl)cc1Cl)=C2c1ccc(O[C@H]2CCN(CCCF)C2)cc1 [anhydrate crystalline Form 2, 6-(2,4-dichlorophenyl)-5-[4-[(3S)-1-(3-fluoropropyl)pyrrolidin-3-yl]oxyphenyl]-8,9-dihydro-7H-benzo[7]annulene-2-carboxylic acid] | stable | 0 | 0.01 | 0.02 | 0.02 | 0.03 | 0.03 | 0.04 | 0.05 | 0.05 | 0.06 | conversion after exposure to moisture ([1]; exposure to moisture): does not convert to another crystalline form; effect of temperature variations on crystal structure ([1]; exposure to temperature variations): does not alter the crystal structure before its melting; stability under ambient conditions of temperature and pressure ([1]; room temperature and ambient pressure): thermodynamically more stable; hygroscopicity (in words) ([2]; 0 to 95% relative humidity, about 25° C., European pharmacopoeia wording): no hygroscopicity; Change in Mass (water uptake) [2]: 0.06% |
| O=C(O)c1ccc2c(c1)CCCC(c1ccc(Cl)cc1Cl)=C2c1ccc(O[C@H]2CCN(CCCF)C2)cc1 [anhydrate crystalline Form 3, 6-(2,4-dichlorophenyl)-5-[4-[(3S)-1-(3-fluoropropyl)pyrrolidin-3-yl]oxyphenyl]-8,9-dihydro-7H-benzo[7]annulene-2-carboxylic acid] | metastable | 0.00 | 0.78 | 1.13 | 1.29 | 1.46 | 2.21 | 2.46 | 2.62 | 2.73 | 2.84 | Change in Mass (water uptake) [2]: 2.92%; weight gain determined by DVS ([2]; at 95% relative humidity): 2.92 weight % |
| O=C(O)c1ccc2c(c1)CCCC(c1ccc(Cl)cc1Cl)=C2c1ccc(O[C@H]2CCN(CCCF)C2)cc1 [anhydrate crystalline Form 4, 6-(2,4-dichlorophenyl)-5-[4-[(3S)-1-(3-fluoropropyl)pyrrolidin-3-yl]oxyphenyl]-8,9-dihydro-7H-benzo[7]annulene-2-carboxylic acid] | metastable | 0.00 | 0.07 | 0.21 | 0.34 | 0.43 | 0.51 | 0.58 | 0.64 | 0.71 | 0.75 | weight gain determined by DVS ([2]; at 90% relative humidity): 0.75 weight % |
| O=C(O)c1ccc2c(c1)CCCC(c1ccc(Cl)cc1Cl)=C2c1ccc(O[C@H]2CCN(CCCF)C2)cc1 [butanol solvate] | physically unstable | – | – | – | – | – | – | – | – | – | – | result of exposure to ambient conditions or dry nitrogen [1]: converts to an amorphous form |
| O=C(O)c1ccc2c(c1)CCCC(c1ccc(Cl)cc1Cl)=C2c1ccc(O[C@H]2CCN(CCCF)C2)cc1 [compound of formula (1), 6-(2,4-dichlorophenyl)-5-[4-[(3S)-1-(3-fluoropropyl)pyrrolidin-3-yl]oxyphenyl]-8,9-dihydro-7H-benzo[7]annulene-2-carboxylic acid] | – | – | – | – | – | – | – | – | – | – | – | storage requirement for stability over time ([1]; amorphous form, industrial scale handling): needs storage under refrigerated conditions to maintain its stability over time |
| O=C(O)c1ccc2c(c1)CCCC(c1ccc(Cl)cc1Cl)=C2c1ccc(O[C@H]2CCN(CCCF)C2)cc1 [ethanol solvate] | unstable | – | – | – | – | – | – | – | – | – | – | result of exposure to heat and/or moisture [1]: formation of the anhydrate Form 1 |
